Reference: patent US7388024B2, “Indeno[2,1A]indenes and isoindolo[2,1-A]indoles” (Suven Life Sciences Limited, priority 2004, dated 2008)

Biological target: T1, Human 5HT6 Receptor (Homo sapiens, UniProt P50406)
T1 construct: expressed in transfected cells; host or cells: HEK293 cells
Experiment: Binding Assay for Human 5HT6 Receptor
Settings: [3H]LSD 1.5 nM; human recombinant receptor expressed in HEK293 cells
Method: Binding Assay for Human 5HT6 Receptor
Receptor source: Human recombinant expressed in HEK293 cells
Radioligand: [^3H]LSD (60-80 Ci/mmol)
Final ligand concentration—[1.5 nM]
Non-specific determinant: Methiothepin mesylate—[0.1 μM]
Reference compound: Methiothepin mesylate
Positive control: Methiothepin mesylate
Reactions are carried out in 50 mM TRIS-HCl (pH 7.4) containing 10 mM MgCl2, 0.5 mM EDTA for 60 minutes at 37° C. The reaction is terminated by rapid vacuum filtration onto glass fiber filters. Radioactivity trapped onto the filters is determined and compared to control values in order to ascertain any interactions of test compound(s) with the cloned serotonin—5HT6 binding site.
• Monsma F. J. Jr., et al., Molecular Cloning and Expression of Novel Serotonin Receptor with High Affinity for Tricyclic Psychotropic Drugs. Mol. Pharmacol. (43): 320-327 (1993).

T1 sequence (P50406 whole entry): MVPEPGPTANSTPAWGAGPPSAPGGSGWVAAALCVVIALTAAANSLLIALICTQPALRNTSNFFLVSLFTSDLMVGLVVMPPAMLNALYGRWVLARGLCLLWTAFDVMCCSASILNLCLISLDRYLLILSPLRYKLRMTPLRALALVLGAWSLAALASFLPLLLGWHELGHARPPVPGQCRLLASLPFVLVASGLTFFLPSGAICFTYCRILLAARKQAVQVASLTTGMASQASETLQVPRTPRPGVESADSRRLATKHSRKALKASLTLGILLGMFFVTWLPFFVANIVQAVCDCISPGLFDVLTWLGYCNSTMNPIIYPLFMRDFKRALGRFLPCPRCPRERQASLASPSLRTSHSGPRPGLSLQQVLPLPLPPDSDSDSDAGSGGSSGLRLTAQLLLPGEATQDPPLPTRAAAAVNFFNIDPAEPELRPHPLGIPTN

Row | IC50 [nM] | Ki [nM] | SMILES
1 | 205 | 88.1 | COc1ccc2c(c1)c(C1CCN(C)C1)c1n2S(=O)(=O)c2ccccc2-1 (stereo not shown) [drawing 19]
2 | 383 | 172 | COc1ccc2c(c1)c(C1CCN(C)C1)c1n2S(=O)(=O)c2ccccc2-1 (stereo not shown) [drawing 20]
